The first test concerns HCV replicon. Briefly: HCV replicon replication assay (NPT ELISA) in Huh-7 replicon-containing cells. The test is classed as cell-based. Particulars: Hepatitis C virus, 72 h; HCV replicon in Huh-7 cells, three days incubation; read-out: EC50. In a few lines: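 Replication was scored by capture ELISA of neomycin phosphotransferase, whose level tracks replicon replication, after graded compound treatment. The cells were Huh-7 harbouring an HCV-IRES/neo/EMCV-IRES/NS3–NS5B/3′-NTR replicon, plated at 6000-7500 cells/well and dosed 24 h later at 60-70% confluence; interferon alpha was the positive control.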
Turning to `COc1ccc2c(O[C@@H]3C[C@@H](C(=O)N[C@H](C(=O)NS(=O)(=O)C4CC4)C(C)(C)C)N(C(=O)[C@@H](CC(=O)N4CCCCC4)C(C)(C)C)C3)cc(-c3ccccc3)nc2c1` [Compound 115, (2S,4R)-1-((S)-2-tert-butyl-4-oxo-4-(piperidin-1-yl)butanoyl)-N-((S)-1-(cyclopropanesulfon-amido)-3,3-dimethyl-1-oxobutan-2-yl)-4-(7-methoxy-2-phenylquinolin-4-yloxy)pyrrolidine-2-carboxamide], the EC50 (in general, the concentration at which the effect is half-maximal) was 1 to 10 µM. On the same count and under the same terms, the same measure for `C=C[C@@H]1C[C@]1(NC(=O)[C@@H]1C[C@@H](Oc2cc(-c3ccccn3)nc3c(Cl)c(OC)ccc23)CN1C(=O)[C@@H](CC(=O)N1CCC(C(F)(F)F)CC1)C(C)(C)C)C(=O)NS(=O)(=O)C1CC1` [Compound 208, (2S,4R)-1-((S)-2-tert-butyl-4-oxo-4-(4-(trifluoro-methyl)piperidin-1-yl)butanoyl)-4-(8-chloro-7-methoxy-2-(pyridin-2-yl)quinolin-4-yloxy)-N-((1R)-1-(cyclopropyl-sulfonylcarbamoyl)-2-vinylcyclo-propyl)pyrrolidine-2-carboxamide]: below 1 µM. With `C=C[C@@H]1C[C@]1(NC(=O)[C@@H]1C[C@@H](Oc2cc(-c3ccccc3)nc3cc(OC)ccc23)CN1C(=O)[C@@H](CC(=O)N1C[C@@H]2C[C@H]1CN2C(=O)OC(C)(C)C)C(C)(C)C)C(=O)NS(=O)(=O)C1CC1` [Compound 172, (1S,4S)-tert-butyl 5-((S)-3-((2S,4R)-2-((1R,2S)-1-(cyclopropyl-sulfonylcarbamoyl)-2-vinylcyclopropyl-carbamoyl)-4-(7-methoxy-2-phenylquinolin-4-yloxy)pyrrolidine-1-carbonyl)-4,4-dimethylpentanoyl)-2,5-diazabi-cyclo[2.2.1]heptane-2-carboxylate], the EC50 was below 1 µM.

On to `C=C[C@@H]1C[C@]1(NC(=O)[C@@H]1C[C@@H](Oc2cc(-c3ccccn3)nc3c(Cl)c(OC)ccc23)CN1C(=O)[C@@H](CC(=O)N1CCCC1C(F)(F)F)C(C)(C)C)C(=O)NS(=O)(=O)C1CC1` (stereo partly drawn) [Compound 207, (2S,4R)-1-((2S)-2-tert-butyl-4-oxo-4-(2-(trifluoromethyl)pyr-rolidin-1-yl)butanoyl)-4-(8-chloro-7-methoxy-2-(pyridin-2-yl)quinolin-4-yloxy)-N-((1R)-1-(cyclopropylsulfonyl-carbamoyl)-2-vinylcyclopropyl)pyr-rolidine-2-carboxamide], for which the EC50 is below 1 µM. On the same count and under the same terms, the same measure for `C=C[C@@H]1C[C@]1(NC(=O)[C@@H]1C[C@@H](Oc2cc(-c3ccccc3)nc3cc(OC)ccc23)CN1C(=O)[C@@H](CC(=O)N1CCC(N(C)C(=O)OC(C)(C)C)C1)C(C)(C)C)C(=O)NS(=O)(=O)C1CC1` (stereo partly drawn) [Compound 161, tert-butyl 1-((S)-3-((2S,4R)-2-((1R,2S)-1-(cyclopropyl-sulfonylcarbamoyl)-2-vinylcyclopropyl-carbamoyl)-4-(7-methoxy-2-phenylquinolin-4-yloxy)pyrrolidine-1-carbonyl)-4,4-dimethyl-pentanoyl)pyrrolidin-3-yl(methyl)carbamate]: below 1 µM; for `C=C[C@@H]1C[C@]1(NC(=O)[C@@H]1C[C@@H](Oc2cc(-c3ccccc3)nc3cc(OC)ccc23)CN1C(=O)[C@@H](CC(=O)N1CCC(C(=O)NC)CC1)C(C)(C)C)C(=O)NS(=O)(=O)C1CC1` [Compound 78]: below 1 µM. In the case of `C=C[C@@H]1C[C@]1(NC(=O)[C@@H]1C[C@@H](Oc2cc(-c3ccccc3)nc3cc(OC)ccc23)CN1C(=O)[C@@H](CC(=O)N1CCC(N(C2CC2)S(=O)(=O)c2cccc(C(F)(F)F)c2)CC1)C(C)(C)C)C(=O)NS(=O)(=O)C1CC1` [Compound 175, (2S,4R)-1-((S)-2-tert-butyl-4-(4-(N-cyclopropyl-3-(tri-fluoromethyl)phenyl-sulfonamido)piper-idin-1-yl)-4-oxobutanoyl)-N-((1R,2S)-1-(cyclopropyl-sulfonylcarbamoyl)-2-vinylcyclopropyl)-4-(7-methoxy-2-phenylquinolin-4-yloxy)pyrrolidine-2-carboxamide], the EC50 was below 1 µM.

`C=C[C@@H]1C[C@]1(NC(=O)[C@@H]1C[C@@H](Oc2cc(-c3ccccc3)nc3cc(OC)ccc23)CN1C(=O)[C@@H](CC(=O)N1CCCCC1)C(C)(C)C)C(=O)NS(=O)(=O)C(C)C` [Compound 63, (2S,4R)-1-((S)-2-tert-butyl-4-oxo-4-(piperidin-1-yl)butanoyl)-N-((1R,2S)-1-(isopropylsulfonyl-carbamoyl)-2-vinylcyclopropyl)-4-(7-methoxy-2-phenylquinolin-4-yloxy)pyrrolidine-2-carboxamide]: the EC50 was below 1 µM. As for `C=C[C@@H]1C[C@]1(NC(=O)[C@@H]1C[C@@H](Oc2cc(-c3ccccn3)nc3c4c(ccc23)OCC4)CN1C(=O)[C@@H](CC(=O)N1CCCCC1)C(C)(C)C)C(=O)NS(=O)(=O)C1CC1` [Compound 152, (2S,4R)-1-((S)-2-tert-butyl-4-oxo-4-(piperidin-1-yl)butanoyl)-N-((1R,2S)-1-(cyclo-propylsulfonyl-carbamoyl)-2-vinylcyclopropyl)-4-(2-(pyridin-2-yl)-8,9-dihydrofuro[2,3-h]quinolin-4-yloxy)pyrrolidine-2-carboxamide], the EC50 is below 1 µM. `CC[C@H](NC(=O)[C@@H]1C[C@@H](Oc2cc(-c3ccccc3)nc3cc(OC)ccc23)CN1C(=O)[C@@H](CC(=O)N1CCCCC1)C(C)(C)C)C(=O)NS(=O)(=O)C1CC1` [Compound 109, (2S,4R)-1-((S)-2-tert-butyl-4-oxo-4-(piperidin-1-yl)butanoyl)-N-((S)-1-(cyclopropane-sulfonamido)-1-oxobutan-2-yl)-4-(7-methoxy-2-phenylquinolin-4-yloxy)pyrrolidine-2-carboxamide]: the EC50 was in the range of 1 to 10 µM. As to `C=CC1C[C@@]1(NC(=O)[C@@H]1C[C@@H](Oc2cc(-c3ccccc3)nc3cc(OC)ccc23)CN1C(=O)C[C@H](C(=O)N1CCCCC1)C(C)(C)C)C(=O)NS(=O)(=O)C1CC1` (stereo partly drawn) [Compound 39, (2S,4R)-N-(1-(cyclo-propylsulfonyl-carbamoyl)-2-vinylcyclopropyl)-1-((S)-4,4-dimethyl-3-(piperidine-1-carbonyl)pentano-yl)-4-(7-methoxy-2-phenylquinolin-4-yloxy)pyrrolidine-2-carboxamide], the EC50 was below 1 µM. For the compound `C=C[C@@H]1C[C@]1(NC(=O)[C@@H]1C[C@@H](Oc2cc(-c3ccccc3)nc3cc(OC)ccc23)CN1C(=O)[C@@H](CC(=O)N1CC[C@@H](NC(=O)OC(C)(C)C)C1)C(C)(C)C)C(=O)NS(=O)(=O)C1CC1` [Compound 184, tert-butyl (R)-1-((S)-3-((2S,4R)-2-((1R,2S)-1-(cyclo-propylsulfonyl-carbamoyl)-2-vinyl-cyclopropyl-carbamoyl)-4-(7-methoxy-2-phenylquinolin-4-yloxy)pyrrolidine-1-carbonyl)-4,4-dime-thylpentanoyl)pyr-rolidin-3-ylcarbamate], the 50% effective concentration (EC50) is below 1 µM. Turning to `C=CC1C[C@]1(NC(=O)[C@@H]1C[C@@H](Oc2cc(-c3ccccc3)nc3cc(OC)ccc23)CN1C(=O)[C@@H](CC(=O)N1CCCCC1)c1ccccc1)C(=O)NS(=O)(=O)C1CC1` (stereo partly drawn) [Compound 59, (2S,4R)-N-((1R,2R)-1-(cyclopropyl-sulfonylcarbamoyl)-2-vinylcyclopropyl)-4-(7-methoxy-2-phenylquinolin-4-yloxy)-1-((S)-4-oxo-2-phenyl-4-(piperidin-1-yl)butanoyl)pyr-rolidine-2-carboxamide], the EC50 is below 1 µM.

The same test, now with this note: Hepatitis C virus, Huh-7.
As to `C=CC1C[C@@]1(NC(=O)[C@@H]1C[C@@H](Oc2cc(-c3ccccc3)nc3cc(OC)ccc23)CN1C(=O)C[C@H](C(=O)N1CCCCC1)C(C)(C)C)C(=O)NS(=O)(=O)C1CC1` (stereo partly drawn) [Compound 39, (2S,4R)-N-(1-(cyclo-propylsulfonyl-carbamoyl)-2-vinylcyclopropyl)-1-((S)-4,4-dimethyl-3-(piperidine-1-carbonyl)pentano-yl)-4-(7-methoxy-2-phenylquinolin-4-yloxy)pyrrolidine-2-carboxamide], the EC50 is at most 10 µM.
